# Laboratory results reported in the RepoRT retention time repository.
# Experiment: HILIC, Waters ACQUITY UPLC BEH Amide, 100 × 2.1 mm, 1.7 µm; A: water + 0.125% formic acid + 10 mM ammonium formate; B: 5% water + 95% acetonitrile + 0.125% formic acid + 10 mM ammonium formate; gradient (min/%B) 0/100 2/100 7.7/70 9.5/40 10.25/30 12.75/100 17/100
# Details: stereoisomer not certain
row,Structure (SMILES),LC retention time [min]
1,Cc1cn(C2CC(O)C(CO)O2)c(=O)[nH]c1=O (configuration not stated) [Thymidine],2.57
2,Cc1cn(C2CC(O)C(COP(=O)(O)O)O2)c(=O)[nH]c1=O (configuration not stated) [Thymidine 5'-monophosphate],8.28
3,Cc1ccsc1C(=CCCN1CCCC(C(=O)O)C1)c1sccc1C (configuration not stated) [Tiagabine],3.94
4,C#CC1(O)CCC2C3C(C)CC4=C(CCC(=O)C4)C3CCC21C (configuration not stated) [Tibolone],1
5,CCS(=O)(=O)CCn1c([N+](=O)[O-])cnc1C [Tinidazole],1.04
6,CC1(C)OC2COC3(COS(N)(=O)=O)OC(C)(C)OC3C2O1 (configuration not stated) [Topiramate],1.1
7,CN(C)CCOc1ccc(C(=C(CCCl)c2ccccc2)c2ccccc2)cc1 [Toremifene],1.89
8,COc1cccc(C2(O)CCCCC2CN(C)C)c1 (configuration not stated) [Tramadol],2.52
9,O=P(O)(O)OCC1OC(OC2OC(CO)C(O)C(O)C2O)C(O)C(O)C1O (configuration not stated) [Trehalose-6-phosphate],9.72
10,O=C(OC1C(Oc2ccccc2COC(=O)C2(O)C=CCCC2=O)OC(CO)C(O)C1O)c1ccccc1 (configuration not stated) [Tremulacin],1.51
11,Cc1nnc2n1-c1ccc(Cl)cc1C(c1ccccc1Cl)=NC2 [Triazolam],1.3
12,CCC(COC(=O)c1cc(OC)c(OC)c(OC)c1)(c1ccccc1)N(C)C (configuration not stated) [Trimebutine],1.47
13,CC(C)C12OC1C1OC13C1(C)CCC4=C(COC4=O)C1CC1OC13C2O (configuration not stated) [Triptolide],1.02
14,CN1C2CCC1CC(OC(=O)c1c[nH]c3ccccc13)C2 (configuration not stated) [Tropisetron],3.81
15,COc1cc(C(=O)NC2CCCNC2)cc(OC)c1OC (configuration not stated) [Troxipide],5.04
16,NCCc1c[nH]c2ccccc12 [Tryptamine],6.92
17,c1ccc2c3c([nH]c2c1)CNCC3 [Tryptoline],4.9
18,NC(Cc1ccc(O)cc1)C(=O)NC(Cc1ccc(O)cc1)C(=O)NC(Cc1ccc(O)cc1)C(=O)O (stereo not drawn) [Tyr-Tyr-Tyr],7.09
19,NCCc1ccc(O)cc1 [Tyramine],5.58
20,O=c1cc[nH]c(=O)[nH]1 [Uracil],2.4
21,NC(=O)NC(CCC(=O)O)C(=O)O (configuration not stated) [Ureidoglutaric acid],7.8
22,O=c1ccn(C2OC(COP(=O)(O)O)C(O)C2O)c(=O)[nH]1 (configuration not stated) [Uridine 5'-monophosphate],8.97
23,O=c1ccn(C2OC(CO)C(O)C2O)c(=O)[nH]1 (configuration not stated) [Uridine],4.72
24,O=C(O)C=Cc1cnc[nH]1 [Urocanic acid],3.69
25,CC(C)C(N)C(=O)O (configuration not stated) [Valine],7.24
26,COc1cc(C=O)ccc1O [Vanillin],1.15

row,Structure (SMILES),LC retention time [min]
1,COc1ccc(C(CN(C)C)C2(O)CCCCC2)cc1 (configuration not stated) [Venlafaxine],2.44
2,CC(=O)OC1CC2CCC3C(CCC4(C)C3CC([N+]3(C)CCCCC3)C4OC(C)=O)C2(C)CC1N1CCCCC1 (configuration not stated) [Vercuronium],5.53
3,OC1CCCCC1N1CCC(c2ccccc2)CC1 (configuration not stated) [Vesamicol],2.65
4,CCC1(O)CC2CN(CCc3c([nH]c4ccccc34)C(C(=O)OC)(c3cc4c(cc3OC)N(C=O)C3C(O)(C(=O)OC)C(OC(C)=O)C5(CC)C=CCN6CCC43C65)C2)C1 (configuration not stated) [Vincristine],3.7
5,CCC1(O)CC2CN(CCc3c([nH]c4ccccc34)C(C(=O)OC)(c3cc4c(cc3OC)N(C)C3C(O)(C(N)=O)C(O)C5(CC)C=CCN6CCC43C65)C2)C1 (configuration not stated) [Vindesine],5.76
6,CCC1=CC2CN(C1)Cc1c([nH]c3ccccc13)C(C(=O)OC)(c1cc3c(cc1OC)N(C)C1C(O)(C(=O)OC)C(OC(C)=O)C4(CC)C=CCN5CCC31C54)C2 (configuration not stated) [Vinorelbine],4.76
7,C=COC(N)=O [Vinyl Carbamate],1.34
8,NC(Cn1ccc(=O)[nH]c1=O)C(=O)O (configuration not stated) [Willardiine],8.72
9,COc1c2occc2cc2ccc(=O)oc12 [Xanthotoxin],1.04
10,COc1cc(N)c(Cl)cc1C(=O)NC1CN2CCC1CC2 (configuration not stated) [Zacopride],4.66
11,CCN(C(C)=O)c1cccc(-c2ccnc3c(C#N)cnn23)c1 [Zaleplon],1.02
12,CC1CCCC(O)CCCCCc2cc(O)cc(O)c2C(=O)O1 (configuration not stated) [Zeranol],1.11
13,Cc1ccc(-c2nc3ccc(C)cn3c2CC(=O)N(C)C)cc1 [Zolpidem],1.62
14,N[C@H]1[C@@H](OP(=O)(O)O)O[C@H](CO)[C@H](O)[C@@H]1O [alpha-Galactosamine-1-phosphate],7.06
15,CSCCC(=O)C(=O)O [alpha-Keto-gamma-(methylthio)butyric acid],0.92
16,C=C1CCOC1=O [alpha-Methylene-gamma-butyrolactone],1.05
17,C[C@](N)(Cc1cnc[nH]1)C(=O)O [alpha-Methylhistidine],8.68
18,CC1=C2C3OC(=O)C(C)C3CCC2(C)C=CC1=O (stereo not drawn) [alpha-Santonin],1.07
19,NCCC(=O)O [beta-Alanine],8.02
20,CC(C)(O)CC(=O)O [beta-Hydroxyisovaleric acid],4.55
21,CNC[C@H](N)C(=O)O [beta-N-Methylaminoalanine],9.32
22,NCC(O)CCC(N)C(=O)O (configuration not stated) [delta-Hydroxylysine],9.77
23,NCCCC(=O)O [gamma-Aminobutyric Acid],7.86
24,NC(CCC(=O)NC(CS)C(=O)O)C(=O)O (configuration not stated) [gamma-Glutamyl-cysteine],8.98
25,NC(=O)CCC(NC(=O)CCC(N)C(=O)O)C(=O)O (configuration not stated) [gamma-Glutamylglutamine],9.55

# Second part, the compound after the results:
row,LC retention time [min],Structure (SMILES)
1,1.53,Cc1ccc(C(C)C)c(O)c1 [Thymol]
2,1.12,Clc1ccccc1CN1CCc2sccc2C1 [Ticlopidine]
3,4.97,Cc1cccc(C)c1NC(=O)C(C)N (configuration not stated) [Tocainide]
4,2.13,Cc1ccc(O)c(C(CCN(C(C)C)C(C)C)c2ccccc2)c1 (configuration not stated) [Tolterodine]
5,1.04,CCCc1c(OCCCCc2nn[nH]n2)ccc(C(C)=O)c1O [Tomelukast]
6,5.72,CCC1(O)C(=O)OCc2c1cc1n(c2=O)Cc2cc3c(CN(C)C)c(O)ccc3nc2-1 (configuration not stated) [Topotecan]
7,1.29,O=C(c1ccccc1)c1ccc2n1CCC2C(=O)O (configuration not stated) [Toradol]
8,1.45,Cc1cccc(Nc2ccncc2S(=O)(=O)NC(=O)NC(C)C)c1 [Torasemide]
9,4.87,NC1CCN(c2nc3c(cc2F)c(=O)c(C(=O)O)cn3-c2ccc(F)cc2F)C1 (configuration not stated) [Tosufloxacin]
10,1.26,COc1ccc(C=CC(=O)Nc2ccccc2C(=O)O)cc1OC [Tranilast]
11,2.38,O=c1n(CCCN2CCN(c3cccc(Cl)c3)CC2)nc2ccccn12 [Trazodone]
12,1.01,CSc1nc2cc(Oc3cccc(Cl)c3Cl)c(Cl)cc2[nH]1 [Triclabendazole]
13,2.15,CN1CCN(CCCN2c3ccccc3Sc3ccc(C(F)(F)F)cc32)CC1 [Trifluoperazine]
14,1.13,NC(=O)N1c2ccccc2CC(=O)c2ccccc21 [Trileptal]
15,2.25,CC(CN(C)C)CN1c2ccccc2CCc2ccccc21 (configuration not stated) [Trimipramine]
16,1.98,CN(C)CCN(Cc1ccccc1)c1ccccn1 [Tripelennamine]
17,6.92,NC(Cc1c[nH]c2ccccc12)C(=O)O (configuration not stated) [Tryptophan]
18,5.91,NC(=O)C(N)Cc1c[nH]c2ccccc12 (configuration not stated) [Tryptophanamide]

row,LC retention time [min],Structure (SMILES)
1,7.38,NC(Cc1ccc(O)cc1)C(=O)NC(Cc1ccc(O)cc1)C(=O)O (configuration not stated) [Tyr-Tyr]
2,7.61,NC(Cc1ccc(O)cc1)C(=O)O (configuration not stated) [Tyrosine]
3,2.89,CN1CCc2cc(Cl)c(O)cc2C(c2ccccc2)C1 (configuration not stated) [UNII-UGT5535REQ]
4,4.58,COc1ccccc1N1CCN(CCCNc2cc(=O)n(C)c(=O)n2C)CC1 [Urapidil]
5,6.83,CC(C)C(N)C(=O)OCCOCn1cnc2c(=O)[nH]c(N)nc21 (configuration not stated) [Valaciclovir]
6,1.01,Cc1onc(-c2ccccc2)c1-c1ccc(S(N)(=O)=O)cc1 [Valdecoxib]
7,1.69,CCCCC(=O)N(Cc1ccc(-c2ccccc2-c2nn[nH]n2)cc1)C(C(=O)O)C(C)C (configuration not stated) [Valsartan]
8,1.7,CCCc1nc(C)c2c(=O)[nH]c(-c3cc(S(=O)(=O)N4CCN(CC)CC4)ccc3OCC)nn12 [Vardenafil]
9,1.16,Cc1ccnc2c1NC(=O)c1cccnc1N2C1CC1 [Viramune]
10,5.33,O=c1cc(-c2ccc(O)cc2)oc2c(C3OC(CO)C(O)C(O)C3O)c(O)cc(O)c12 (configuration not stated) [Vitexin]
11,1.02,CC(c1ncncc1F)C(O)(Cn1cncn1)c1ccc(F)cc1F (configuration not stated) [Voriconazole]
12,0.99,CC(=O)CC(c1ccccc1)c1c(O)c2ccccc2oc1=O (configuration not stated) [Warfarin]
13,6.01,CN(CCO)CC(O)Cn1cnc2c1c(=O)n(C)c(=O)n2C (configuration not stated) [Xanthinol]
14,7.3,O=c1[nH]c(=O)c2ncn(C3OC(CO)C(O)C3O)c2[nH]1 (configuration not stated) [Xanthosine]
15,1,COc1cc(C(=O)NS(=O)(=O)c2ccccc2C)ccc1Cc1cn(C)c2ccc(NC(=O)OC3CCCC3)cc12 [Zafirlukast]
16,1.19,COc1cc(-c2ccc(=O)[nH]n2)ccc1OC(F)F [Zardaverine]
17,1.23,CC(c1cc2ccccc2s1)N(O)C(N)=O (configuration not stated) [Zileuton]
18,4.8,CN(C)CCc1c[nH]c2ccc(CC3COC(=O)N3)cc12 (configuration not stated) [Zolmitriptan]
